Measurements taken from ChEMBL document CHEMBL5625252, “Synthesis of peptidomimetics as antibiotic adjuvants for combination with aztreonam to combat MDR Pseudomonas aeruginosa” (Eur J Med Chem, 2023).
≈ marks a conversion by molar mass, not a printed value.

Assays:
Assay type in all cases: functional
Pseudomonas aeruginosa [1] = assay: Synergistic antibacterial activity against Pseudomonas aeruginosa PAO1 assessed as aztreonam MIC upto […] ug/ml incubated for 18 hrs by checkerboard method (reference value: 8 microg/ml)
Escherichia coli [2] = assay: Antibacterial activity against ESBLs (+) Escherichia coli 16-1 assessed as inhibition of bacterial growth incubated for 18 hrs by agar dilution method
Escherichia coli [3] = assay: Antibacterial activity against mcr-1 (+) Escherichia coli 08-85 assessed as inhibition of bacterial growth incubated for 18 hrs by agar dilution method
Pseudomonas aeruginosa [4] = assay: Antibacterial activity against BL (+) Pseudomonas aeruginosa ATCC 27853 assessed as inhibition of bacterial growth incubated for 18 hrs by agar dilution method
Pseudomonas aeruginosa [5] = assay: Antibacterial activity against Pseudomonas aeruginosa PAO1 assessed as inhibition of bacterial growth incubated for 18 hrs by agar dilution method
Klebsiella pneumoniae [6] = assay: Antibacterial activity against NDM-1 (+) Klebsiella pneumoniae 09-20 assessed as inhibition of bacterial growth incubated for 18 hrs by agar dilution method
Klebsiella pneumoniae [7] = assay: Antibacterial activity against NDM-1 (+) Klebsiella pneumoniae 2146 assessed as inhibition of bacterial growth incubated for 18 hrs by agar dilution method
Escherichia coli [8] = assay: Antibacterial activity against NDM-1 (+) Escherichia coli CDC 1001728 assessed as inhibition of bacterial growth incubated for 18 hrs by agar dilution method
Klebsiella pneumoniae [9] = assay: Antibacterial activity against ESBLs (+) Klebsiella pneumoniae 16-14 assessed as inhibition of bacterial growth incubated for 18 hrs by agar dilution method
Klebsiella pneumoniae [10] = assay: Antibacterial activity against ESBLs (+) Klebsiella pneumoniae ATCC 700603 assessed as inhibition of bacterial growth incubated for 18 hrs by agar dilution method
Escherichia coli [11] = assay: Antibacterial activity against ESBLs (-) Escherichia coli ATCC 25922 assessed as inhibition of bacterial growth incubated for 18 hrs by agar dilution method

Compound | MIC (Pseudomonas aeruginosa [1]) [mg/L] | MIC (Escherichia coli [2]) [mg/L] | MIC (Escherichia coli [3]) [mg/L] | MIC (Pseudomonas aeruginosa [4]) [mg/L] | MIC (Pseudomonas aeruginosa [5]) [mg/L] | MIC (Klebsiella pneumoniae [6]) [mg/L] | MIC (Klebsiella pneumoniae [7]) [mg/L] | MIC (Escherichia coli [8]) [mg/L] | MIC (Klebsiella pneumoniae [9]) [mg/L] | MIC (Klebsiella pneumoniae [10]) [mg/L] | MIC (Escherichia coli [11]) [mg/L]
NCCC[C@H](NC(=O)CCc1ccc(F)cc1)C(=O)Nc1ccc2ccccc2c1 | 8 | – | – | – | – | – | – | – | – | – | –
C[C@H]1[C@H](NC(=O)/C(=N\OCC(=O)N2CCC(C(=O)O)CC2)c2csc(N)n2)C(=O)N1S(=O)(=O)O | – | 16 (≈ 30.9 µM) | > 64 | > 64 | > 64 | > 64 | > 64 | 16 (≈ 30.9 µM) | > 64 | > 64 | 4 (≈ 7.71 µM)
NCCC[C@H](NC(=O)Cc1ccc2ccccc2c1)C(=O)N[C@@H](Cc1ccccc1)C(=O)O | 8 | – | – | – | – | – | – | – | – | – | –
NCCC[C@H](NC(=O)CCc1ccc(Cl)cc1)C(=O)Nc1ccc2ccccc2c1 | 8 | – | – | – | – | – | – | – | – | – | –
NCCC[C@H](NC(=O)CCc1ccc(C(F)(F)F)cc1)C(=O)Nc1ccc2ccccc2c1 | 8 | – | – | – | – | – | – | – | – | – | –
C#CCO/N=C(\C(=O)N[C@@H]1C(=O)N(S(=O)(=O)O)[C@H]1C)c1nsc(N)n1 | – | 16 (≈ 41.2 µM) | > 64 | 64 (≈ 165 µM) | 16 (≈ 41.2 µM) | > 64 | > 64 | 32 (≈ 82.4 µM) | > 64 | > 64 | 8 (≈ 20.6 µM)
NCCC[C@H](NC(=O)CCc1ccc([N+](=O)[O-])cc1)C(=O)Nc1ccc2ccccc2c1 | 8 | – | – | – | – | – | – | – | – | – | –
C[C@H]1[C@H](NC(=O)/C(=N\OCC(=O)N2CCC[C@@H]2C(=O)O)c2nsc(N)n2)C(=O)N1S(=O)(=O)O | – | 1 (≈ 1.98 µM) | > 64 | > 64 | > 64 | 16 (≈ 31.7 µM) | > 64 | 8 (≈ 15.8 µM) | > 64 | > 64 | 1 (≈ 1.98 µM)
C[C@H](O/N=C(\C(=O)N[C@@H]1C(=O)N(OS(=O)(=O)O)C1(C)C)c1csc(N)n1)C(=O)O | – | 0.125 (≈ 0.277 µM) | 0.25 (≈ 0.554 µM) | 16 (≈ 35.4 µM) | 16 (≈ 35.4 µM) | 0.5 (≈ 1.11 µM) | 4 (≈ 8.86 µM) | – | 0.25 (≈ 0.554 µM) | 8 (≈ 17.7 µM) | 0.25 (≈ 0.554 µM)
NCCC[C@H](NC(=O)c1ccc2ccccc2c1)C(=O)N[C@@H](Cc1ccccc1)C(N)=O | 8 | – | – | – | – | – | – | – | – | – | –
C[C@H]1[C@H](NC(=O)/C(=N\OCC(=O)N2C3CCCC3C[C@@H]2C(=O)O)c2csc(N)n2)C(=O)N1S(=O)(=O)O (stereo partly drawn) | – | 1 (≈ 1.84 µM) | > 64 | > 64 | > 64 | 8 (≈ 14.7 µM) | > 64 | 16 (≈ 29.4 µM) | 64 (≈ 118 µM) | > 64 | 1 (≈ 1.84 µM)
NCCC[C@H](NC(=O)C[C@H](N)c1ccccc1)C(=O)Nc1ccc2ccccc2c1 | 8 | – | – | – | – | – | – | – | – | – | –
C[C@H]1[C@H](NC(=O)/C(=N\OCC(=O)N2CCC(C(=O)O)C2)c2csc(N)n2)C(=O)N1S(=O)(=O)O (stereo partly drawn) | – | 2 (≈ 3.96 µM) | > 64 | > 64 | > 64 | 32 (≈ 63.4 µM) | > 64 | 16 (≈ 31.7 µM) | > 64 | > 64 | 1 (≈ 1.98 µM)
NCCC[C@H](NCc1ccc2ccccc2c1)C(=O)N[C@@H](CCc1ccccc1)C(=O)O | 8 | – | – | – | – | – | – | – | – | – | –
C[C@H]1[C@H](NC(=O)/C(=N\OCCN)c2nsc(N)n2)C(=O)N1S(=O)(=O)O | – | 16 (≈ 40.7 µM) | > 64 | > 64 | > 64 | 64 (≈ 163 µM) | 32 (≈ 81.3 µM) | 16 (≈ 40.7 µM) | > 64 | 32 (≈ 81.3 µM) | 32 (≈ 81.3 µM)
C[C@H]1COc2c(N3CCN(C)CC3)c(F)cc3c(=O)c(C(=O)O)cn1c23 [LEVOFLOXACIN ANHYDROUS] | – | – | 16 (≈ 44.3 µM) | – | – | 16 (≈ 44.3 µM) | 128 (≈ 354 µM) | 8 (≈ 22.1 µM) | – | – | ≤ 0.03

Compound | MIC (Pseudomonas aeruginosa [1]) [mg/L] | MIC (Escherichia coli [2]) [mg/L] | MIC (Escherichia coli [3]) [mg/L] | MIC (Pseudomonas aeruginosa [4]) [mg/L] | MIC (Pseudomonas aeruginosa [5]) [mg/L] | MIC (Klebsiella pneumoniae [6]) [mg/L] | MIC (Klebsiella pneumoniae [7]) [mg/L] | MIC (Escherichia coli [8]) [mg/L] | MIC (Klebsiella pneumoniae [9]) [mg/L] | MIC (Klebsiella pneumoniae [10]) [mg/L] | MIC (Escherichia coli [11]) [mg/L]
CC(C)[C@@H](O/N=C(\C(=O)N[C@@H]1C(=O)N(OS(=O)(=O)O)C1(C)C)c1csc(N)n1)C(=O)O | – | 8 (≈ 16.7 µM) | 32 (≈ 66.7 µM) | > 64 | > 64 | 16 (≈ 33.4 µM) | > 64 | 32 (≈ 66.7 µM) | 16 (≈ 33.4 µM) | 64 (≈ 133 µM) | 16 (≈ 33.4 µM)
NCCC[C@H](NC(=O)CCc1cc(F)cc(F)c1)C(=O)Nc1ccc2ccccc2c1 | 2 | – | – | – | – | – | – | – | – | – | –
CCOC(=O)[C@H](CCc1ccccc1)NC(=O)[C@H](CCCN)NC(=O)c1ccc2ccccc2c1 | 8 | – | – | – | – | – | – | – | – | – | –
C[C@H]1[C@H](NC(=O)/C(=N\OCC(=O)N2CCCC(C(=O)O)C2)c2csc(N)n2)C(=O)N1S(=O)(=O)O (stereo partly drawn) | – | 2 (≈ 3.86 µM) | > 64 | > 64 | > 64 | 64 (≈ 123 µM) | > 64 | 16 (≈ 30.9 µM) | > 64 | > 64 | 0.5 (≈ 0.964 µM)
NCCC[C@H](NC(=O)c1ccc2ccccc2c1)C(=O)N[C@@H](CCc1ccccc1)C(=O)O | 8 | – | – | – | – | – | – | – | – | – | –
C[C@@H](O/N=C(\C(=O)N[C@@H]1C(=O)N(OS(=O)(=O)O)C1(C)C)c1csc(N)n1)C(=O)O | – | 0.5 (≈ 1.11 µM) | 1 (≈ 2.22 µM) | 64 (≈ 142 µM) | 64 (≈ 142 µM) | 1 (≈ 2.22 µM) | 8 (≈ 17.7 µM) | – | 0.5 (≈ 1.11 µM) | 4 (≈ 8.86 µM) | 1 (≈ 2.22 µM)
COC(=O)[C@H](Cc1ccccc1)NC(=O)[C@H](CCCN)NC(=O)c1ccc2ccccc2c1 | 8 | – | – | – | – | – | – | – | – | – | –
POLYMYXIN B | – | 0.25 | 8 | 4 | 8 | 16 | 1 | 1 | 1 | 2 | 1
CC(C)[C@H](O/N=C(\C(=O)N[C@@H]1C(=O)N(OS(=O)(=O)O)C1(C)C)c1csc(N)n1)C(=O)O | – | 0.125 (≈ 0.261 µM) | 0.25 (≈ 0.521 µM) | 8 (≈ 16.7 µM) | 4 (≈ 8.34 µM) | 0.25 (≈ 0.521 µM) | 1 (≈ 2.09 µM) | 0.5 (≈ 1.04 µM) | 0.125 (≈ 0.261 µM) | 2 (≈ 4.17 µM) | 0.25 (≈ 0.521 µM)
C[C@H]1[C@H](NC(=O)/C(=N\OC(C)(C)C(=O)N2CCC[C@@H]2C(=O)O)c2csc(N)n2)C(=O)N1S(=O)(=O)O | – | 1 (≈ 1.88 µM) | > 64 | 32 (≈ 60.1 µM) | 8 (≈ 15 µM) | 16 (≈ 30 µM) | > 64 | 64 (≈ 120 µM) | > 64 | > 64 | 2 (≈ 3.76 µM)
C=CCO/N=C(\C(=O)N[C@@H]1C(=O)N(S(=O)(=O)O)[C@H]1C)c1nsc(N)n1 | – | 16 (≈ 41 µM) | > 64 | > 64 | 64 (≈ 164 µM) | > 64 | > 64 | 64 (≈ 164 µM) | > 64 | > 64 | 8 (≈ 20.5 µM)
C[C@H]1[C@H](NC(=O)/C(=N\OCC(=O)N2CCC[C@@H]2C(=O)O)c2csc(N)n2)C(=O)N1S(=O)(=O)O | – | 0.12 (≈ 0.238 µM) | > 64 | > 64 | 32 (≈ 63.4 µM) | 2 (≈ 3.96 µM) | > 64 | 8 (≈ 15.9 µM) | 16 (≈ 31.7 µM) | > 64 | 0.12 (≈ 0.238 µM)
NCCC[C@H](NC(=O)CCc1ccccc1)C(=O)Nc1ccc2ccccc2c1 | 2 | – | – | – | – | – | – | – | – | – | –
NCCC[C@H](NC(=O)CCCc1ccccc1)C(=O)Nc1ccc2ccccc2c1 | 8 | – | – | – | – | – | – | – | – | – | –
COc1ccc(CCC(=O)N[C@@H](CCCN)C(=O)Nc2ccc3ccccc3c2)cc1 | 8 | – | – | – | – | – | – | – | – | – | –
